Experimental data taken from paper PMC4381587, “A novel PI3K inhibitor PIK-C98 displays potent preclinical activity against multiple myeloma” (Oncotarget, 2014).
pIC50: −log10 of the molar value.

Tests used:
[1] = molecular target: recombinant human PI3K isoform δ (Homo sapiens, UniProt O00329); test: Kinase activity in cell-free assay (HotSpot), PI3Kδ; assay type: biochemical; conditions: read-out: IC50 against PI3K δ isoform
Method: (§1) To confirm this hypothesis, the inhibitory potency of C98 on PI3K enzymes was measured in a cell-free system with individual recombinant human PI3K isoforms. […] To further evaluate its specificity on PI3K, the effects of C98 on other associated kinases AKT, PDK1, and mTOR were also measured in the enzymatic systems. […] Therefore, C98 preferred to inhibit PI3K activity.
(§2) Figure 1 C98 inhibits PI3K activity (A) Chemical structure of C98. (B) OPM2 cells were starved overnight and then treated with six compounds identified from the virtual screening for 2 hr, followed by IGF-1 stimulation for 15 min. Cell lysates were prepared for AKT expression and phosphorylation analyses. The known PI3K inhibitor S14161 was used as a positive control. (C) OPM2 cells were starved overnight, then treated with C98 at indicated concentration (25, 50 and 100 μM) or S14161 (100 μM) for 2 hr, followed by IGF-1 (100 ng/mL) stimulation for 15 min Cell lysates were prepared for AKT expression and phosphorylation analyses. […] Activity of each kinase was determined with HotSpot technology as described in the Methods section “Kinase activity in cell-free assay”. […]

[2] = molecular target: recombinant human PI3K isoform β (Homo sapiens, UniProt P42338); test: Kinase activity in cell-free assay (HotSpot), PI3Kβ; assay type: biochemical; conditions: read-out: IC50 against PI3K β isoform
Method: as §1, §2

[3] = test system: KMS11, LP1, OCI-My5, OPM2, JJN3, and RPMI-8226; test: Immunoblotting of PARP and caspase-3 cleavage in MM cell lines; assay type: cell-based; conditions: all cell lines examined, 20 μM, 24 hr
Method: To answer whether C98 could induce apoptosis in other MM cells, 5 more MM cells were subject to the study. […] Cell apoptosis induced by C98 was further confirmed by the increased fraction of positive cells stained with Annexin V (Figure 5). To show whether activated PI3K signals can rescue C98 effects on MM cells, both OPM2 and RPMI-8226 cells were treated with IGF-1 alone or together with C98 for 48 hr followed by MTT assay.
Figure 4 C98 activates apoptotic signaling in MM cells (A) JJN3 cells were treated with C98 (0, 2.5, 5, 10, 20 μM) for 24 hr or 10 μM for 0, 3, 6, or 9 hr, followed by immunoblotting for the expression of p-AKT, t-AKT, pro-caspase-3 (Pro-Casp3), and cleaved caspase-3 (Cle-Casp3). (B) KMS11, LP1, OCI-My5, OPM2, JJN3, and RPMI-8226 were treated with C98 (20 μM) for 24 hr, followed by immunoblotting for the expression of PARP, Pro-Casp3, and Cle-Casp3. GAPDH was used as a loading control.
(§3) The immunoblotting assays were performed as described previously. IRDye 680 goat anti-mouse and IRDye 800CW goat anti-rabbit antibodies were from Odyssey (San Ramon, CA, USA).

ERK = test: Immunoblotting of ERK phosphorylation in OPM2 and JJN3 cells; assay type: cell-based, human; conditions: OPM2 and JJN3, 24 hr
Method: (§4) (B) LP1 and JJN3 cells were starved overnight, then treated with C98 or S14161 for 2 hr, followed by IGF-1 (100 ng/mL) for 15 min. Cells were then prepared for the analysis of the expression of p-AKT, t-AKT, p-IGF-1R, and IGF-1R by immunoblotting. (C) OPM2 and JJN3 cells were treated with increasing concentrations of C98 for 24 hr before being applied to immunoblotting against p-ERK, t-ERK, p-P38, t-P38, p-Src, t-Src, p-STAT3, or t-STAT3. GAPDH and β-actin were used as loading controls.
(§5) To further clarify the effects of C98 on other signaling pathways associated with PI3K signaling, we evaluated ERK and p38, both of which mediate extracellular signaling similar to PI3K. […] We also checked the phosphorylation status of STAT3, a signal transducer and activator of transcription. […] Therefore, C98 had no effects on these kinases/proteins associated with PI3K signaling.
as §3

[4] = molecular target: recombinant human PI3K isoform α (Homo sapiens, UniProt P42336); test: Kinase activity in cell-free assay (HotSpot), PI3Kα; assay type: biochemical; conditions: read-out: IC50 against PI3K α isoform
Method: as §1, §2

PTEN = test: Immunoblotting of PTEN protein level in MM cells; assay type: cell-based; conditions: MM cells after C98 treatment
Method: To find out whether C98 also interfered with other signaling pathways, we first checked the receptor tyrosine kinase IGF-1R, which mediates PI3K activation in MM cells in the presence of IGF-1. Starved MM cells LP1 and JJN3 were incubated with C98 followed by IGF-1 stimulation. […] Moreover, we also measured the expression of PTEN, a negative regulator of PI3K signaling, in MM cells after C98 treatment.
as §3

[5] = test system: AKT phosphorylation in OPM2 cells; test: Immunoblotting of AKT phosphorylation in starved, IGF-1-stimulated OPM2 cells; assay type: cell-based, human; conditions: OPM2 starved overnight, C98 25-100 μM, 0.5-2 hr, then IGF-1 100 ng/mL 15 min
Method: as §1, §2

[6] = Body weight and hematology analysis in xenograft mice; assay type: in vivo
Method: Totally 50 female […] mice from Shanghai Slac Laboratory Animal Co. Ltd were used for the xenograft models with human MM cell lines OPM2 and JJN3, respectively. When tumors were palpable, the OPM2-xenograft mice were randomly divided into two groups. One group as a control was received the vehicle, and another group was orally administrated C98 (80 mg/kg) once a day for continuous 16 days. The JJN3 xenografted mice were randomly divided into three groups which were orally administrated vehicle or C98 (40 or 80 mg/kg), respectively. Body weight and tumor volumes were measured every other day as described previously. At the end of this experiment, tumors were collected for further studies. The concentrations of C98 in tumor tissues were also determined by LC-MS/MS as described above. All experiments involved in mice were reviewed and approved by the Review Board of Animal Care and Use of Soochow University.
At the end of the experiment of the in vivo studies, whole blood samples were collected from the eyes and were immediately subject to complete blood analysis as described previously. […]
www.impactjournals.com/oncotarget/ Oncotarget, Supplementary Materials 2014 […]
OPM2 (A) and JJN3 (B) were injected (s.c.) […]
into nude mice. When tumors were palpable, mice were orally administrated C98 at dosage as indicated for continued 16 days. Mice bodyweight was monitored every other day. […]

STAT3 = test: Immunoblotting of STAT3 phosphorylation in OPM2 and JJN3 cells; assay type: cell-based, human; conditions: OPM2 and JJN3, 24 hr
Method: as §4, §5, §3

Sequence of recombinant human PI3K isoform β (P42338 whole entry, canonical isoform): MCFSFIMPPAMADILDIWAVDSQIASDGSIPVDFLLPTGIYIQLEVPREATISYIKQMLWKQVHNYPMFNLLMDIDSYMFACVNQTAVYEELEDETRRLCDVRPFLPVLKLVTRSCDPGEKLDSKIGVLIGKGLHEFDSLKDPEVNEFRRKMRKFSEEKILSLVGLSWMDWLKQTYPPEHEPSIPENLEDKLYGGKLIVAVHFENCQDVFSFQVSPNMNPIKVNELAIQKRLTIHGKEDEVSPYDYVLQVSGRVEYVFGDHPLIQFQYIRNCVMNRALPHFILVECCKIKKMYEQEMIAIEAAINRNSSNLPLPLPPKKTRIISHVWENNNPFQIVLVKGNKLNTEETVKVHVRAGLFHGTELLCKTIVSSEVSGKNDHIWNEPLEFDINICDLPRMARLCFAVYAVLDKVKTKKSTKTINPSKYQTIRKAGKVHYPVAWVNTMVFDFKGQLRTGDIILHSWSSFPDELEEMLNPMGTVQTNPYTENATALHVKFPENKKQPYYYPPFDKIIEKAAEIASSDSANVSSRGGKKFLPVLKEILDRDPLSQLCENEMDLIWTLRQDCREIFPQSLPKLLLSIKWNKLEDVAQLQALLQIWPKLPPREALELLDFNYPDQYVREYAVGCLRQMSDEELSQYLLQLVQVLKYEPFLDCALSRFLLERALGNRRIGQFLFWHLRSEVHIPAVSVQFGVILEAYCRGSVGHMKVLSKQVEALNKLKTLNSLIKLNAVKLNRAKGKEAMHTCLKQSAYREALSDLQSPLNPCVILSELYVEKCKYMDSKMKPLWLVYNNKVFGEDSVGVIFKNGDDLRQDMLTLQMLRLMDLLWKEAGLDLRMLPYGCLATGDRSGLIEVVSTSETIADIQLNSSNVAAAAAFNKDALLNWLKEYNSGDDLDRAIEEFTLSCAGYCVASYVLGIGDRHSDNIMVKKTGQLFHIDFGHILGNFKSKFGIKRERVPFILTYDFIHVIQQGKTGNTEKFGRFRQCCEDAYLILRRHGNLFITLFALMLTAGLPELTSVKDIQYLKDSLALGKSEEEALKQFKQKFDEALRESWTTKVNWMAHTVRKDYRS
Sequence of recombinant human PI3K isoform β (P27986 whole entry partner, canonical isoform): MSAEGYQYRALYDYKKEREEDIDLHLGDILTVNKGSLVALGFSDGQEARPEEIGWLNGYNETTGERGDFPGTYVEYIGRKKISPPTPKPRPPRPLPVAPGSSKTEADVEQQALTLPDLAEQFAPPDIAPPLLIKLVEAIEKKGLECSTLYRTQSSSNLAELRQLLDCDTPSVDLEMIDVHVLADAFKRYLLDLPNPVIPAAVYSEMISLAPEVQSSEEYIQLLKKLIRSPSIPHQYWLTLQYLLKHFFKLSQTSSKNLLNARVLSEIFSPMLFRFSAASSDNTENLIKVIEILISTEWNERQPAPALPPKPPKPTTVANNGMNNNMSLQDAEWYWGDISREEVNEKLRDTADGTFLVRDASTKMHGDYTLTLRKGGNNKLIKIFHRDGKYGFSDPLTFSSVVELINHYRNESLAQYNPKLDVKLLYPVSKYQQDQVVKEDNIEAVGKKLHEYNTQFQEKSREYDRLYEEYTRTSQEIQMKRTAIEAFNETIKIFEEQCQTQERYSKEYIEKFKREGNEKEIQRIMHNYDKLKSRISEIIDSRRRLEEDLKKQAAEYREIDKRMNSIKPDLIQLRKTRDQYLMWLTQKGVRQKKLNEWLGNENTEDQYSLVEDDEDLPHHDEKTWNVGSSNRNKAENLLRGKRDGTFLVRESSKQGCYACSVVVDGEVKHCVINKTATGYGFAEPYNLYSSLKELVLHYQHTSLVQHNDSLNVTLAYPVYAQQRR
Sequence of recombinant human PI3K isoform δ (O00329 whole entry, canonical isoform): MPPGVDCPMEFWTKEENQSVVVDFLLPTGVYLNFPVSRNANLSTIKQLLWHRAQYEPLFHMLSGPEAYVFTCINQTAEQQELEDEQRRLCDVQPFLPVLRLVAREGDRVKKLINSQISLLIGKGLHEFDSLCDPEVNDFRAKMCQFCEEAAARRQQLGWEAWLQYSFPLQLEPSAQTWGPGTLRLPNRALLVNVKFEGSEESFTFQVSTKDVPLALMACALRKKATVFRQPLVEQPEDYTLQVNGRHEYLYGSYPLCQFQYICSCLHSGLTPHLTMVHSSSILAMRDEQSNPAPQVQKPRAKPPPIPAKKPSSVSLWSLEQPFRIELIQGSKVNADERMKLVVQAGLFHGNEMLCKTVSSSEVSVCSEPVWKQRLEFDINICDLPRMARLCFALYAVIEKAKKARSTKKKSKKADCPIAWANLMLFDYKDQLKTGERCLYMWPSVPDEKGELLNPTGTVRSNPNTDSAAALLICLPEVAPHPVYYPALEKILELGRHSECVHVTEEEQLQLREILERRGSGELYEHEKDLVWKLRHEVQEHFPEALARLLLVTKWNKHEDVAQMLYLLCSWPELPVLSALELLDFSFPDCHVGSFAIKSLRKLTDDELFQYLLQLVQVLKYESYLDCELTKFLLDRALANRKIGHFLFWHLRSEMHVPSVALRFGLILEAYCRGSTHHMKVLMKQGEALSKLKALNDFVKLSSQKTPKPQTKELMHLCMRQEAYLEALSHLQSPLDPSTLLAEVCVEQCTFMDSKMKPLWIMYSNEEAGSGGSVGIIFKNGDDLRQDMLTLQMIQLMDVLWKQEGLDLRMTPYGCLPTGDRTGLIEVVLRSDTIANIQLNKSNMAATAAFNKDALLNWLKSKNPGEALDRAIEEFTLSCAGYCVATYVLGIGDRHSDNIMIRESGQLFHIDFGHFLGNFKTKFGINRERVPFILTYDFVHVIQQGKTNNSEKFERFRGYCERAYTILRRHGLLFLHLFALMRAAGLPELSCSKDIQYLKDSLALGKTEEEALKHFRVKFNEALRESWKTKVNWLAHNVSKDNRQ
Sequence of recombinant human PI3K isoform δ (P27986 whole entry partner, canonical isoform): as the sequence (P27986 whole entry partner, canonical isoform) above
Sequence of recombinant human PI3K isoform α (P42336 whole entry, canonical isoform): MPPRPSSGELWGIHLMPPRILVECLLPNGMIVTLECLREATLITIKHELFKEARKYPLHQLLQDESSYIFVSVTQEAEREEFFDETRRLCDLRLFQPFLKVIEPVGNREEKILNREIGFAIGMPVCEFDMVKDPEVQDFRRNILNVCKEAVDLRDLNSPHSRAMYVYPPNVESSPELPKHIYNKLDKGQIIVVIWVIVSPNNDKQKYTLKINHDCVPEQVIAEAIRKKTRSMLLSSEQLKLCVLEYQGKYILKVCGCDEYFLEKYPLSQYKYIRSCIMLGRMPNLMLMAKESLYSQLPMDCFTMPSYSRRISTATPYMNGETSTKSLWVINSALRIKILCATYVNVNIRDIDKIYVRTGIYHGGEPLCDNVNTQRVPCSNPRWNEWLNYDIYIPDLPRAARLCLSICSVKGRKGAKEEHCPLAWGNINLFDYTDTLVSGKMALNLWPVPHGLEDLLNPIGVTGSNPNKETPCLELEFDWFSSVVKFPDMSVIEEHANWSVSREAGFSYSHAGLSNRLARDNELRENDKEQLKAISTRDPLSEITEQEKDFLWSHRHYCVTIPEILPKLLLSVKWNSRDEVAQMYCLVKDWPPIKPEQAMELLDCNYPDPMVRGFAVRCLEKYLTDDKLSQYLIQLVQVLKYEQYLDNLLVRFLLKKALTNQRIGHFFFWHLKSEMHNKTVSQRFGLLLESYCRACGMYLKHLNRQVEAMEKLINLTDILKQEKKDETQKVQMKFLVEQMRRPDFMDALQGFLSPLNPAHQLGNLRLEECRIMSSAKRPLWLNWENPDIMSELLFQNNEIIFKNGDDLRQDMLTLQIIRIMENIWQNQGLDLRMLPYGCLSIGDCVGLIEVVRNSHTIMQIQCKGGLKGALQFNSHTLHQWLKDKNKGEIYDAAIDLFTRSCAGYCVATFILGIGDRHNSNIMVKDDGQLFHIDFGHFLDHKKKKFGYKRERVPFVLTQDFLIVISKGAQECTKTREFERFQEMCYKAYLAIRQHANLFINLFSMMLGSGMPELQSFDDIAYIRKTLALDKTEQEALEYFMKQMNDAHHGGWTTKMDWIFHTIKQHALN
Sequence of recombinant human PI3K isoform α (P27986 whole entry partner, canonical isoform): as the sequence (P27986 whole entry partner, canonical isoform) above

- pIC50 [1]: 5.44
- pIC50 [2]: 5.79
- pIC50 [4]: 6.23
Structure (SMILES): N#C/C(=C\C=C\c1ccc(-c2cc(Cl)ccc2Cl)o1)C(N)=S [C98]
- cleavage of caspase-3 and PARP (apoptosis) [3]: both caspase-3 and PARP were cleaved
- phosphorylation level of ERK (ERK): failed to decrease
- PTEN protein level (PTEN): had no effects on the PTEN protein level
- AKT phosphorylation [5]: inhibited AKT phosphorylation in a time- and concentration-dependent manner
- body weight of mice ([6]; OPM2 and JJN3 xenograft models, oral 40 or 80 mg/kg, 16 days): had no effects on body weight
- blood cell count, platelet count, hemoglobin measurement ([6]; mice treated with C98, end of the in vivo studies (data not shown)): no significant changes
- phosphorylated STAT3 (STAT3): did not decrease
